The values that follow are results of earlier work, collected in patent US20200353086A1, “CONTROLLED-RELEASE FORMULATIONS” (CAMURUS AB, priority 2014, published 2020).

Series [1] relates to somatostatin receptors (SSTRs).
For series [2] the following is noted: human, single subcutaneous dose.

*1 amine or outer side, *2 acyl side, *3 side chain or, on linkers, in order; H or OH if unused. Where a SMILES comes first, the peptide text is derived from it. Side-chain parts run from the residue outwards. [ ]: non-standard residue; d: D form. The star is where a group is joined. Ethylenediamine = C(CN[*:2])N[*:1]; Hyp = O=C(O)[C@@H]1C[C@@H](O)CN1; Phg = N[C@H](C(=O)O)c1ccccc1; CO = O=C([*:1])[*:2]; Bn = c1ccc(C*)cc1

For `C[C@@H](O)[C@@H]1NC(=O)[C@H](CCCCN)NC(=O)[C@@H](Cc2c[nH]c3ccccc23)NC(=O)[C@H](Cc2ccccc2)NC(=O)[C@@H](NC(=O)[C@H](N)Cc2ccccc2)CSSC[C@@H](C(=O)N[C@H](CO)[C@@H](C)O)NC1=O` [Octreotide, D-Phe-Cys-Phe-D-Trp-Lys-Thr-Cys-Thr-ol (2-7 disulphide bridge)], the terminal half-life entry (in vivo) was “around 1.7 hours”. Also, the “selectivity between somatostatin receptor subtypes” value in series [1] is “high selectivity for SSTR2 and SSTRS”.
Regarding `NCCCC[C@@H]1NC(=O)[C@@H](Cc2c[nH]c3ccccc23)NC(=O)[C@H](c2ccccc2)NC(=O)[C@@H]2C[C@@H](OC(=O)NCCN)CN2C(=O)[C@H](Cc2ccccc2)NC(=O)[C@H](Cc2ccc(OCc3ccccc3)cc2)NC1=O` [Pasireotide] (cyclo([Hyp]([CO-Ethylenediamine])[Phg][dW]KY(Bn)F)), in series [2], the “initial half-life following the peak” value is 2 to 3 h. The “affinity for somatostatin receptor subtypes” value in series [1] is “high affinity for somatostatin receptor subtypes sstr1,2,3 and sstr5”.
With “Ala-Gly-Cys-Lys-Asn-Phe-Phe-Trp-Lys-Thr-Phe-Thr-Ser-Cys [SST-14]”, the biological half-life (natural SST-14) was 1-3 minutes. For the same compound, the “affinity for somatostatin receptor subtypes” value in series [1] is listed as “equally high affinity”.
